In patent US20090011410A1, “METHOD FOR TAILORING ADMINISTRATION OF DRUGS BY QUANTITATION OF MRNA” (priority 2004, published 2009):

Key:
p21 mRNA = assay: drug-induced p21 mRNA expression in whole blood of leukemia and lymphoma patients; assay type: cell-based, human
PUMA mRNA = assay: drug-induced PUMA mRNA expression in whole blood of healthy adults; assay type: cell-based, human; settings: for kinetics of PUMA induction: heparinized whole blood, 0-8 hours at 37° C., 20 μM BLM, 100 μM VP-16 (FIG. 5)
Experimental: In 8-well strip microtubes, 1.4 μl of 50× concentrations of drugs or controls (phosphate buffered saline (PBS) or DMSO) were added, and stored at −20° C. until use. […] Seventy μl of fresh heparinized whole blood was added into each well in triplicate, and incubated at 37° C. for 2-8 hours with the cap closed. For radiation treatment, blood was stimulated at designated doses using cesium-137. After each treatment, 50 μl of whole blood was transferred to filterplates as described below.
The mRNA and cDNA were prepared from whole blood. In brief, home-made 96-well filterplates were placed over collection plates, and 150 μl 5 mM Tris, pH 7.4, was applied. Following centrifugation at 120×g for 1 min at 4° C., 50 μl of blood samples were applied to each well and immediately centrifuged at 120×g for 2 min at 4° C., followed by washing of each well with 300 μl PBS once with centrifugation at 2000×g for 5 min at 4° C. Then, 60 μl stock lysis buffer, containing for example 0.5% N-Lauroylsarcosine, 4×SSC, 10 mM Tris HCl, pH 7.4, 1 mM EDTA, 0.1% IGEPAL CA-630, and 1.791 M guanidine thiocyanate, supplemented with 1% 2-mercaptoethanol (Bio Rad, Hercules, Calif., USA), 0.5 mg/ml proteinase K (Pierce, Rockford, Ill., USA), 0.1 mg/ml salmon sperm DNA (5 Prime Eppendorf/Brinkmann, Westbury, N.Y., USA), 0.1 mg/ml E. coli tRNA (Sigma), a cocktail of 10 mM each of the specific reverse primers shown in Table 1, and standard RNA34 oligonucleotides, were applied to the filterplates, followed by incubation at 37° C. for 10 min. The filterplates were then placed over oligo(dT)-immobilized microplates (GenePlate, RNAture), and centrifuged at 2000×g for 5 min at 4° C. Following overnight storage at 4° C., the microplates were washed with 100 μl plain lysis buffer 3 times, followed by 150 μl of wash buffer (0.5 M NaCl, 10 mM Tris, pH 7.4, 1 mM EDTA) 3 times at 4° C. The cDNA was directly synthesized in each well by adding 30 μl buffer containing 1×RT-buffer, 1.25 mM each of dNTP, 4 units rRNasin, and 80 units of MMLV reverse transcriptase (Promega) (without primers), and incubation at 37° C. for 2 hours. The specific primer-primed cDNA existed in solution, and oligo(dT)-primed cDNA stayed immobilized in the microplate. For TaqMan PCR (FIGS. 1, 3, 4), the resultant 4 μl cDNA solution was directly transferred to 384-well PCR plates, to which 5 μl of TaqMan universal master mix (ABI) and 1 μl oligonucleotide cocktail (15 μM each of forward and reverse primer, and 3-6 μM TaqMan probe) were applied, and PCR was conducted in PRISM 7900HT (ABI), with one cycle of 95° C. for 10 min followed by 45 cycles of 95° C. for 30 sec, 55° C. for 30 sec, and 60° C. for 1 min. For SYBR Green PCR (see FIG. 6), cDNA was diluted 3-4 fold in water, and 4 μl cDNA solution was directly transferred to 384-well PCR plates, to which 5 μl of a master mix (BioRad, Hercules, Calif.) and 1 μl of oligonucleotide cocktail (15 μM each of forward and reverse primer) were applied, and PCR was conducted in PRISM 7900HT (ABI), with one cycle of 95° C. for 10 min followed by 45 cycles of 95° C. for 30 sec and 60° C. for 1 min. Each gene was amplified in separate wells. The Ct was determined by analytical software (SDS, ABI). Although 1×RT buffer was used as a negative control, none of the primer pairs produced non-specific primer-dimers under these experimental conditions. For PUMA in FIG. 8, immobilized cDNA on the oligo(dT)-immobilized microplates was directly amplified in an iCycler (BioRad).
Quantitation of various mRNAs was conducted using the following method. Triplicate aliquots of 50 μl each of heparinized whole blood was applied to 96-well filterplates to trap leukocytes. The filterplates were placed over collection plates, and 150 μl 5 mM Tris, pH 7.4, was applied. […]

[1] = 20 μM BLM or 100 μM VP-16, 4 hours at 37° C. (FIG. 6)

COc1cc([C@@H]2c3cc4c(cc3[C@@H](O[C@@H]3O[C@@H]5CO[C@@H](C)O[C@H]5[C@H](O)[C@H]3O)[C@H]3COC(=O)[C@H]23)OCO4)cc(OC)c1O [VP-16, etoposide]
p21 mRNA induction (p21 mRNA; leukemic lymphoma patient 2, 2 hours at 37° C., drug concentrations (FIG. 3)): induced | PUMA induction (PUMA mRNA; [1]): responses were confirmed in all individuals | PUMA induction (PUMA mRNA; 100 μM VP-16, 2 hours at 37° C. (FIG. 9C)): induced | kinetics of PUMA induction (PUMA mRNA): transient induction

bleomycin [BLM]
BLM-induced p21 responses (ΔCt) compared with healthy donors (p21 mRNA; 1 μM BLM, 2 hours at 37° C., 13 leukemia and lymphoma patients vs 27 healthy donors, p=0.000002 (FIG. 15)): less than those of healthy control | concentration at which significant induction of PUMA was observed (PUMA mRNA; 0-20 μM BLM, 4 hours at 37° C. (FIG. 7)): more than 0.1 VM | PUMA induction (PUMA mRNA; [1]): responses were confirmed in all individuals | PUMA induction (PUMA mRNA; BLM at concentrations as low as 0.2 μM, 2 hours at 37° C., all cases (FIG. 10C)): induced | kinetics of PUMA induction (PUMA mRNA): increased continuously for 8 hours
